Measured values as given in publication PMC6412895, “Synthesis, Characterization, and Biological Activity of a Novel Series of Benzo[4,5]imidazo[2,1-b]thiazole Derivatives as Potential Epidermal Growth Factor Receptor Inhibitors” (Molecules, 2019).

What was measured:
HUVEC cells = test: MTT cell toxicity assay, HUVEC; assay type: cell-based; conditions: 24 h incubation, human normal cells
Description: (§1) The inhibitory activities of all target compounds against the cervical cancer cell line HeLa, human liver cancer cell line HepG2, human liver cell line HL7702, and human umbilical vein endothelial cell line HUVEC were determined by the 3-(4,5-dimethylthiazol-2-yl)-2,5-diphenyltetrazolium bromide (MTT) assay. As known, the EGFR level of the HeLa cells was highly expressed, while that of the HepG2 cells was low, and the HL7702 cells and HUVEC cells were human normal cells.
(§2) The human cancer cell lines (HeLa and HepG2) and the human normal ones (HL7702 and HUVEC) were chosen to evaluate the antitumor activity and cell toxicity of target compounds in vitro by the MTT assay. HeLa, HepG2, and HUVEC cells were cultured in a Dulbecco’s modified Eagle’s medium (DMEM) supplemented with 10% fetal bovine serum, and HL7702 cells were cultured in a DMEM supplemented with 10% fetal bovine serum. Cells were grown to 80–90% confluence and subjected to no more than 20 cell passages and were left to acclimatize for 24 h before any treatments. The cells were seeded into 96-well plates (8 * 10^4 cells/mL) and incubated at 37 °C in a humidified atmosphere containing 5% CO2 overnight. After 24 h, the cancer cells were treated with the target compounds at 100, 50, 25, 12.5, 6.25, 3.13, and 1.56 μmol/L; the human normal cells HL7702 were treated with 200 and 100 μmol/L of the target ones; and the HUVEC were treated with 100 and 50 μmol/L of the target compounds. After 24 h of incubation, MTT (5 mg/mL) was subsequently added and incubated for 4 h. Next, the culture medium was cleared, and the crystals were dissolved in DMSO. The optical densities (OD) at 490 nm were measured on a universal microplate reader (Bio-Tek instruments, Inc., EL × 800). Inhibitory effects were expressed as the percentage of IC50 value.

HL7702 cells = test: MTT cell toxicity assay, HL7702 normal liver cells; assay type: cell-based; conditions: human normal liver cell line
Description: as §1, §2

HepG2 cells = test: MTT anti-proliferative assay, HepG2; assay type: cell-based, human; conditions: EGFR low-expressed cell line
Description: as §1, §2

HeLa cells = test: MTT anti-proliferative assay, HeLa; assay type: cell-based, human; conditions: 24 h incubation, EGFR high-expressed cell line
Description: as §1, §2

EGFR kinase = EGFR kinase (Homo sapiens, UniProt P00533); test: EGFR kinase assay (Kinase-Glo Plus luminescence); assay type: biochemical; conditions: 10 µM ATP, 30 °C, 40 minutes
Description: The EGFR kinase assays of the target compounds were performed by the intrinsic ATPase activity luminescence assay. All the enzymatic reactions were conducted at 30 °C for 40 minutes. The 50 µL reaction mixture contained 40 mM Tris, pH 7.4, 10 mM MgCl2, 0.1 mg/mL BSA, 1 mM DTT, 10 µM adenosine triphosphate (ATP), 0.2 ug/mL PI3 Kinase, and 100 µM lipid substrate. The compounds were diluted in 10% DMSO and 5 µL of the dilution was added to a 50 µL reaction so that the final concentration of DMSO was 1% in all the reactions. The assay was performed using the Kinase-Glo Plus luminescence kinase assay kit, which measures the kinase activity by quantifying the amount of ATP remaining in solution following a kinase reaction. The luminescent signal from the assay was correlated with the amount of ATP present and was inversely correlated with the amount of kinase activity. The IC50 values were calculated using nonlinear regression with a normalized dose−response fit using the Prism GraphPad software (version 6.0, GraphPad Software, San Diego, CA, USA).

[1] = Homo sapiens, HepG2, 24 h incubation

EGFR kinase, sequence (P00533 669-1210 limits assumed): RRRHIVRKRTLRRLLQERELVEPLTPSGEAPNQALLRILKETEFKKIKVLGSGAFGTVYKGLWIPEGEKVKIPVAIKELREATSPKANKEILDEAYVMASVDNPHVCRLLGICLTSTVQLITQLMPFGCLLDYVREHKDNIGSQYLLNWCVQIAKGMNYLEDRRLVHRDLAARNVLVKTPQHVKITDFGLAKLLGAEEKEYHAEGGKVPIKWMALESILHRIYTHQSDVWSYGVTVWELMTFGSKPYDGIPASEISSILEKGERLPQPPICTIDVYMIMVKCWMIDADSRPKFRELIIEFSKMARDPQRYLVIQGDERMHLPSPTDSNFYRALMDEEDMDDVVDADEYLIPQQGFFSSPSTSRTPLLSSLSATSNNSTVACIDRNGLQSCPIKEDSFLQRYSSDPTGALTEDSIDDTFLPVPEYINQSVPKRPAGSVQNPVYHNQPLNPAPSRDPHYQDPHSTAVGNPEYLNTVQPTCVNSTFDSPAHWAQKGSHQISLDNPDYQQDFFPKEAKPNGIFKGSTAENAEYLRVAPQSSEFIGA

| Compound | melting point | IC50 (HepG2 cells; [1]) | IC50 (HeLa cells; Homo sapiens, HeLa) | IC50 (HepG2 cells; 24 h incubation) | IC50 (HeLa cells) | IC50 (EGFR kinase) | IC50 (HUVEC cells; HUVEC) | IC50 (HL7702 cells; L02, 24 h incubation) | IC50 (HUVEC cells) | IC50 (HL7702 cells; 24 h incubation) |
| --- | --- | --- | --- | --- | --- | --- | --- | --- | --- | --- |
| O=C(Cc1csc2nc3ccccc3n12)Nc1cccc([N+](=O)[O-])c1 [Compound D06, 2-(Benzo[4,5]imidazo[2,1-b]thiazol-3-yl)-N-(3-nitrophenyl)acetamide] | 132 to 134 °C | > 100 µM | > 100 µM | – | – | – | > 100 µM | > 200 µM | – | – |
| 2-(Benzo[4,5]imidazo[2,1-b]thiazol-3-yl)-N-(4-(benzyloxy)phenyl)acetamide [Compound D12] | – | – | – | > 100 µM | > 100 µM | – | – | – | > 100 µM | > 200 µM |
| O=C(Cc1csc2nc3ccccc3n12)Nc1ccc(O)cc1 [Compound D02, 2-(Benzo[4,5]imidazo[2,1-b]thiazol-3-yl)-N-(4-hydroxyphenyl)acetamide] | 101 to 103 °C | > 100 µM | > 100 µM | – | – | – | > 100 µM | > 200 µM | – | – |
| O=C(Cc1csc2nc3ccccc3n12)Nc1ccccc1 [Compound D01, 2-(Benzo[4,5]imidazo[2,1-b]thiazol-3-yl)-N-phenylacetamide] | 123 to 125 °C | > 100 µM | > 100 µM | – | – | – | > 100 µM | > 200 µM | – | – |
| 2-(Benzo[4,5]imidazo[2,1-b]thiazol-3-yl)-N-(4-(trifluoromethyl)phenyl)acetamide [Compound D18] | – | – | – | – | 43.7 µM | – | – | – | – | – |
| O=C(Cc1csc2nc3ccccc3n12)Nc1ccc([N+](=O)[O-])cc1 [Compound D07, 2-(Benzo[4,5]imidazo[2,1-b]thiazol-3-yl)-N-(4-nitrophenyl)acetamide] | 99 to 101 °C | > 100 µM | > 100 µM | – | – | – | > 100 µM | > 200 µM | – | – |
| C=CCOc1ccc(NC(=O)Cc2csc3nc4ccccc4n23)cc1 [Compound D05, N-(4-(Allyloxy)phenyl)-2-(benzo[4,5]imidazo[2,1-b]thiazol-3-yl)acetamide] | 196 to 198 °C | > 100 µM | > 100 µM | – | – | – | > 100 µM | > 200 µM | – | – |
| O=C(Cc1csc2nc3ccccc3n12)Nc1ccccc1O [Compound D04, 2-(Benzo[4,5]imidazo[2,1-b]thiazol-3-yl)-N-(2-hydroxyphenyl)acetamide] | 121 to 123 °C | > 100 µM | 0.42 µM | – | – | 0.055 µM | > 100 µM | > 200 µM | – | – |
| O=C(Cc1csc2nc3ccccc3n12)Nc1cccc(O)c1 [Compound D03, 2-(Benzo[4,5]imidazo[2,1-b]thiazol-3-yl)-N-(3-hydroxyphenyl)acetamide] | 111 to 113 °C | > 100 µM | > 100 µM | – | – | – | > 100 µM | > 200 µM | – | – |

Now from value to compound, other results behind:

| melting point | IC50 (HepG2 cells; [1]) | IC50 (HeLa cells; Homo sapiens, HeLa) | IC50 (HepG2 cells; 24 h incubation) | IC50 (HeLa cells) | IC50 (EGFR kinase) | Compound | IC50 (HUVEC cells; HUVEC) | IC50 (HL7702 cells; L02, 24 h incubation) | IC50 (HUVEC cells) | IC50 (HL7702 cells; 24 h incubation) |
| --- | --- | --- | --- | --- | --- | --- | --- | --- | --- | --- |
| 83 to 85 °C | > 100 µM | > 100 µM | – | – | – | Cc1ccccc1NC(=O)Cc1csc2nc3ccccc3n12 [Compound D15, 2-(Benzo[4,5]imidazo[2,1-b]thiazol-3-yl)-N-(2-methylphenyl)acetamide] | > 100 µM | > 200 µM | – | – |
| 218 to 220 °C | > 100 µM | > 100 µM | – | – | – | O=C(Cc1csc2nc3ccccc3n12)Nc1ccc(F)c(Br)c1 [Compound D13, 2-(Benzo[4,5]imidazo[2,1-b]thiazol-3-yl)-N-(3-bromo-4-fluorophenyl)acetamide] | > 100 µM | > 200 µM | – | – |
| 101 to 103 °C | > 100 µM | 32.1 µM | – | – | – | O=C(Cc1csc2nc3ccccc3n12)Nc1cc(F)cc(F)c1 [Compound D16, 2-(Benzo[4,5]imidazo[2,1-b]thiazol-3-yl)-N-(3,5-difluorophenyl)acetamide] | > 100 µM | > 200 µM | – | – |
| 136 to 138 °C | > 100 µM | 2.49 µM | – | – | 0.0883 µM | O=C(Cc1csc2nc3ccccc3n12)Nc1cccc2ccccc12 [Compound D08, 2-(Benzo[4,5]imidazo[2,1-b]thiazol-3-yl)-N-(naphthalen-1-yl)acetamide] | > 100 µM | > 200 µM | – | – |
| 107 to 109 °C | > 100 µM | > 100 µM | – | – | – | O=C(Cc1csc2nc3ccccc3n12)Nc1ccc(Br)cc1 [Compound D14, 2-(Benzo[4,5]imidazo[2,1-b]thiazol-3-yl)-N-(4-bromophenyl)acetamide] | > 100 µM | > 200 µM | – | – |
| 206 to 208 °C | > 100 µM | > 100 µM | – | – | – | O=C(Cc1csc2nc3ccccc3n12)Nc1ccc(Cl)cc1Cl [Compound D17, 2-(Benzo[4,5]imidazo[2,1-b]thiazol-3-yl)-N-(2,4-dichlorophenyl)acetamide] | > 100 µM | > 200 µM | – | – |
| 153 to 155 °C | > 100 µM | > 100 µM | – | – | – | O=C(Cc1csc2nc3ccccc3n12)Nc1ccc(Cl)c(C(F)(F)F)c1 [Compound D10, 2-(Benzo[4,5]imidazo[2,1-b]thiazol-3-yl)-N-(4-chloro-3-(trifluoromethyl)phenyl)acetamide] | > 100 µM | > 200 µM | – | – |
| 151 to 153 °C | > 100 µM | > 100 µM | – | – | – | O=C(Cc1csc2nc3ccccc3n12)Nc1ccc(Br)c(F)c1 [Compound D11, 2-(Benzo[4,5]imidazo[2,1-b]thiazol-3-yl)-N-(4-bromo-3-fluorophenyl)acetamide] | > 100 µM | > 200 µM | – | – |
| 151 to 153 °C | > 100 µM | 14.1 µM | – | – | 0.1 µM | O=C(Cc1csc2nc3ccccc3n12)Nc1ccc(Cl)cc1 [Compound D09, 2-(Benzo[4,5]imidazo[2,1-b]thiazol-3-yl)-N-(4-chlorophenyl)acetamide] | > 100 µM | > 200 µM | – | – |
